In patent publication US6514761B1, “Methods of using BCL-2 for the therapeutic treatment and prevention of diseases” (The Burnham Institute, priority 1993, dated 2003):

How the values were obtained:
[1] = test system: in vitro self-assembled nuclei; experiment: Cell-free apoptosis assay: nuclei assembled in Xenopus egg extracts with sperm chromatin; design: species or system Xenopus laevis
Protocol: A cell-free assay for assessing Bcl-2 function was developed to rapidly screen compounds for ability to inhibit or enhance Bcl-2 protein function. The assay utilizes in vitro self-assembled nuclei generated by mixing cell extracts derived from Xenopus laevis eggs with isolated sperm chromatin. The nuclei assemble normally but, after about 2 hours, begin to disintegrate. The nuclei appeared contracted and had the same appearance as isolated nuclei that had been treated briefly with an endonuclease. This phenomenon appears to represent apoptosis. Alternatively, isolated hepatocyte nuclei can be substituted for sperm chromatin and mixed with the egg extracts, resulting in the same phenomenon.
To test the effect of Bcl-2 protein on nuclei, lysates were prepared from Sf9 insect cells infected with recombinant baculoviruses encoding either Bcl-2 or an irrelevant protein such as β-galactosidase (β-gal) or the Lck kinase (see Reed et al., Anal. Biochem. 205:70-76 (1992). To confirm that Bcl-2 was expressed in the insect cell lysates, Sf9 insect cells were infected with recombinant Bcl-2 baculovirus or recombinant Lck baculovirus vectors. Infected cells were incubated for three days to allow expression of the gene products, then lysates were obtained and fractionated by SDS-PAGE electrophoresis. Following electrophoresis, proteins were transferred to membrane and probed with an antiserum raised against a synthetic peptide corresponding to part of the predicted amino acid sequence of human Bcl-2. […] Bcl-2 protein comprised about 5-10% of the total extracted protein.
Sf9 cell lysates were added at a 1:90 dilution into the Xenopus extracts or to a final protein concentration of 10 μg/ml (see Newmeyer and Wilson, Meth. Cell Biol. 36:607-634 (1991), which is incorporated herein by reference). […] After about another 40 min of incubation, the nuclei had disintegrated completely (FIG. 9B) and a generally dispersed filamentous background of Hoechst fluorescence remained along with many small spherical or irregularly shaped aggregates of chromatin (not shown). […]

[2] = test system: 32D-3 cells; experiment: Viability of stably transfected 32D-3 cells in culture (trypan blue exclusion); format: cell-based; details: cells expressing the protein, followed over days in culture, versus Neo control
Text: FIG. 2A. Cell viability as determined by trypan blue exclusion (mean +/− standard deviation of 3 determinations). W.T., wild-type Bcl-2; P59S, mutant Bcl-2; Neo, control.
32D-3 cells were stably transfected with expression plasmids containing a G418 antibiotic resistance gene and either a wild-type or mutant human Bcl-2 DNA sequence. The mutant Bcl-2 sequence encodes a variant Bcl-2 protein having a serine substitution for a proline at amino acid position 59 (BCL2/P59S). This amino acid substitution results in a high level of constitutive expression of BCL2/P59S.
Following selection of the cells for G418 resistance, cells were plated and their viability was determined.

[3] = test system: AT-3 cells; experiment: Sindbis virus-induced death of AT-3 prostate cancer cells (trypan blue exclusion); format: cell-based, rat; details: AT-3 cells infected with pZIP-BCL2, grown with Sindbis virus
Text: FIG. 3. Bcl-2 blocks prostate cancer cell line, AT-3, death induced by Sindbis virus infection. Cell viability as determine by trypan blue exclusion (mean +/− standard deviation of 3 determinations). pZIP-BCL2 or pZIP-NEO are described in FIG. 1B. AT-3-NEO control cells (circles); AT-3-BCL2 cells (squares). Virus infected cells (solid symbols); cells cultured in the absence of virus (open symbols).
A rat prostate cancer cell line, AT-3, was infected with pZIP-BCL2 or pZIP-NEO (see FIG. 1B), then grown in the presence or absence of Sindbis virus. At various times after the addition of Sindbis virus, cells were collected and cell viability was determine using trypan blue exclusion.

[4] = test system: PC12 cells; experiment: Glutamate-induced death of PC12 cells (MTT dye reduction assay); format: cell-based, rat; details: PC12 cells infected with pZIP-BCL-2; 30 mM glutamate, 24 hours
Protocol: FIG. 4. Protection of PC12 cells from glutamate-induced death by Bcl-2. Cell viability as determined by MTT dye reduction assay (mean +/− standard deviation of 3 determinations).
The rat pheochromocytoma cell line, PC12, was stably infected with pZIP-BCL-2 or pZIP-NEO (see FIG. 1B), then treated with 30 mM glutamate for 24 hours. Following treatment, cell viability was assessed by MTT dye reduction assay as described in Tada et al., J. Immunol. Meth. 93:157-165 (1986).

[5] = test system: 32D-3 cells; experiment: Survival of transfected 32D-3 cells cultured without growth factor; format: cell-based; details: 32D-3 cells expressing the protein, growth factor deprivation
Text: FIGS. 5A and 5B. Homologs of Bcl-2 prolong survival of 32D-3 cells grown in the absence of Il-3 for various times. Cell viability as determined by the trypan blue exclusion (mean +/− standard deviation of 3 determinations).
FIGS. 6A to 6C. Bcl-2 acts synergistically with Raf-1 to prolong cell survival under conditions of growth factor deprivation. Bcl-2 protein, alone (open circles); activated Raf-1 protein, alone (squares); Bcl-2+Raf-1 proteins (closed circles); no Bcl-2 or Raf-1 protein (triangles).
FIG. 7. A dominant-negative form of the Bcl-2 protein, Bcl-2β, accelerates cell death. Cell viability as determined by trypan blue exclusion. […]
32D-3 cells were stably transfected with expression plasmids containing either a hygromyin (HYG) or a G418 (NEO) antibiotic resistance gene and cDNA encoding either the human Bcl-2 protein, the chicken Bcl-2 protein or the BHRF-1 protein from Epstein Barr Virus (viral homolog of Bcl-2). […] Following transfection, cells were cultured without growth factor for various times and the number of viable cells was determined.
32D-3 cells were stably transfected with expression plasmids producing Bcl-2 protein, activated Raf-1 protein or both Bcl-2 and Raf-1, then cultured under conditions of growth factor deprivation that cause apoptosis. At various times after removing the growth factor from the medium, cells were collected and viability was determined. […]

“Bcl-2: about 26 kDa protein that promotes cell survival by blocking apoptosis; expressed by gene transfer or added as Sf9 lysate” was tested, and the “intact, transport-competent nuclei” value ([1]; after 2 hours of incubation, Bcl-2-containing Sf9 lysate added to Xenopus extract) was “about 50%”, the “nuclei remaining intact and transport-competent” value ([1]; after two hours and forty min incubation, Bcl-2-containing Sf9 lysate) was 42% and the “amount of fluorescent transport substrate imported by nuclei” value ([1]; in one hour, Bcl-2-containing lysate) was “no gross changes”. The “number of viable cells in culture” value [2] was “did not decrease during the time examined”, the “protection from Sindbis virus-induced cell death” value [3] was “protected from Sindbis virus-induced death” and the “protection from glutamate-induced cell death” value [4] was “protected the PC12 cells from glutamate-induced death”. The “cell viability / survival without growth factor” value [5] was “modest effect”.

B1: chicken Bcl-2: chicken Bcl-2 homolog expressed from cDNA in 32D-3 cells (protein, UniProt Q00709 1-233, looked up)
Apoptosis regulator Bcl-2: MAHPGRRGYDNREIVLKYIHYKLSQRGYDWAAGEDRPPVPPAPAPAAAPAAVAAAGASSHHRPEPPGSAAASEVPPAEGLRPAPPGVHLALRQAGDEFSRRYQRDFAQMSGQLHLTPFTAHGRFVAVVEELFRDGVNWGRIVAFFEFGGVMCVESVNREMSPLVDNIATWMTEYLNRHLHNWIQDNGGWDAFVELYGNSMRPLFDFSWISLKTILSLVLVGACITLGAYLGHK
In the case of B1, the “cell viability / survival without growth factor” value [5] is reported as “nearly as effective as the human Bcl-2”.
